Target: T1, STARD4 (Homo sapiens, UniProt Q96DR4, C75S)
T1 construct: STARD4(2-205; C75S); made in house; host or cells: E. coli BL21(DE3)
T1 sequence (Q96DR4 2-205 C75S): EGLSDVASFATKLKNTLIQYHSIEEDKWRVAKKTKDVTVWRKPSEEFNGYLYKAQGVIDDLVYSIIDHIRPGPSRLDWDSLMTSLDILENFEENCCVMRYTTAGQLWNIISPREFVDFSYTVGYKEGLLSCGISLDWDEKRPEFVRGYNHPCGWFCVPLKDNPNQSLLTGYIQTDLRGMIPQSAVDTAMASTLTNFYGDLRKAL
Assay: Differential scanning fluorimetry (DSF), STARD4
Type: binding
Details: for ΔTm at 10 µM / STARD4 (DSF) ΔTm: single dose, Dose = 10 µM; for Kd: apparent Kd, mean of three experiments run in technical duplicates, read-out: STARD4 Kd,app (DSF); for STARD4 (DSF) ΔTmmax: maximal thermal shift
Description: Protein expression constructs
Human ASTER domains of Aster-A(359-547), -B(364-552) and -C(318-504) were subcloned into a pGEX-6p-2rbs vector, thus introducing the cloning artifact ‘GPLGS’.3 The pGEX-6P-1-GST-OSBP(377- […]
a gift from James H. Hurley (University of California).4 The pHIS_2His6_Thrombin_STARD4(2-205;C75S) plasmid was a gift from Young Jun Im (Chonnam National University).5 STARD5A was a gift from Nicola Burgess-Brown (Addgene plasmid #42392; http://n2t.net/addgene:42392; […]
Protein expression and purification […]
vectors including an N-terminal PreScission-cleavable glutathione S-transferase (GST)-tag were expressed in Escherichia coli (E. coli) OverExpress C41 in Terrific Broth (TB) medium for 16 h at 18 °C after the induction with 0.1 mM isopropyl β-D-1-thiogalactopyranoside (IPTG). Cells were harvested at 3500 × g for 15 minutes and lysed by sonication in buffer containing 50 mM HEPES pH 7.5, 300 mM NaCl, 10 %v/v glycerol, 5 mM dithiothreitol (DTT), 0.1 %v/v Triton X-100 and protease inhibitor mix HP plus (Serva). The lysate was purified by affinity chromatography on a GSTrap FF column (Cytiva) using an ÄKTA Start (Cytiva) in buffer containing 50 mM HEPES pH 7.5, 300 mM NaCl, 10 %v/v glycerol, 5 mM DTT and 0.01 %v/v Triton X-100. The GST-tag was cleaved overnight on the column at 4 °C. The Aster sterol binding domains were further purified by size-exclusion chromatography (SEC) on a HiLoad 16/600 Superdex 75 pg (Cytiva) in buffer containing 20 mM HEPES pH 7.5, 300 mM NaCl, 10 %v/v […]
STARD5(6-213) harboring an N-terminal His6-Tag were expressed in E. coli BL21(DE3) in Luria-Bertani Broth (LB) medium for approximately 16 h at 18 °C after induction with 0.15 mM IPTG. Cells were harvested at 3500 × g for 15 minutes and lysed by sonication in buffer containing 50 mM HEPES pH 7.5, 150 mM NaCl, 5 %v/v glycerol, 5 mM DTT, 0.1 %v/v Triton X -100 and ethylenediaminetetraacetic acid (EDTA)-free protease inhibitor cocktail (Sigma-Aldrich). The cleared lysate was purified by affinity chromatography on a Ni-NTA Superflow Cartridge (Qiagen) using an ÄKTA Start (Cytiva) in buffer containing 50 mM HEPES pH 7.5, 150 mM NaCl, 5 %v/v glycerol, 5 mM DTT. START domains were eluted by using elution buffer containing 50 mM HEPES pH 7.5, 150 mM NaCl, 5 %v/v glycerol, 5 mM DTT and 500 mM imidazole. Proteins were further purified by SEC on a HiLoad 16/600 Superdex 75 pg (Cytiva) in buffer containing 20 mM HEPES pH 7.5, 150 mM NaCl, 5 %v/v glycerol and 2 mM DTT.
The ORP domain of human OSBP(377-807) in the pGEX-6p-1 vector with an N-terminal PreScission-cleavable GST-tag was expressed in E. coli OverExpress C41 in LB medium for 16 h at 18 °C after induction with 0.1 mM IPTG. Cells were harvested at 3500 × g for 15 minutes and lysed by sonication in buffer containing 20 mM HEPES pH 7.5, 300 mM NaCl, 10 %v/v glycerol, 5 mM DTT, 0.1 %v/v Triton X-100 and EDTA-free protease inhibitor cocktail (Sigma-Aldrich). The cleared lysate was purified by affinity chromatography on a GSTrap HF column (Cytiva) using an ÄKTA Start (Cytiva) in buffer containing 20 mM HEPES pH 7.5, 300 mM NaCl, 10 %v/v glycerol, 5 mM DTT. OSBP(377 -807) was eluted by using elution buffer containing 20 mM HEPES pH 7.5, 300 mM NaCl, 10 %v/v glycerol, 5 mM DTT and 10 mM reduced glutathione. Proteins were further purified by SEC on a HiLoad 16/600 Superdex 75 pg (Cytiva) using an ÄKTA Explorer (Cytiva) in buffer containing 20 mM HEPES pH 7.5, 150 mM NaCl, 10 %v/v glycerol and 2 mM DTT.
The ORP domains of human ORP1(534-950) in pET24b(+) and ORP2(49-480) in the pET24b(+) vector including an N-terminal His6-Tag were expressed in E. coli BL21(DE3) in TB medium for approximately 16 h at 18 °C after induction with 0.1 mM IPTG. Cells were collected at 3500 × g for 15 minutes and lysed by sonification in buffer containing 10 mM Tris-HCl pH 8, 300 mM NaCl, 5 % glycerol, 2 mM DTT, 0.1 % Triton X-100 and EDTA-free protease inhibitor cocktail (Sigma-Aldrich). The cleared […]

| Compound | ΔTm at 10 µM [°C] | Kd [µM] | STARD4 (DSF) ΔTmmax [°C] | STARD4 (DSF) ΔTm [°C] |
| --- | --- | --- | --- | --- |
| Cc1cc(C)c2c(c1)NC(=O)[C@@]1(C)CC[C@@H](O)C[C@H]1CCC2=O [Compound 11g] | 0.464 | – | – | – |
| Cc1ccc2[nH]c3c(c(=O)c2c1)C[C@@H]1C[C@H](O)CC[C@]31C [Compound 12] | -0.0238 | – | – | – |
| Cc1ccc2c(c1)[C@]1(O)CC[C@@H]3C[C@H](O)CC[C@]3(C)C1=N2 [Compound 14a] | 0.8 | – | – | – |
| COc1ccc2c(c1)[C@]1(O)CC[C@@H]3C[C@H](O)CC[C@]3(C)C1=N2 [Compound 14b] | -0.1 | – | – | – |
| Cc1cc(C)c2c(c1)N=C1[C@@]2(O)CC[C@@H]2C[C@H](O)CC[C@]12C [Compound 14c] | -0.0123 | – | – | – |
| C[C@]12CC[C@@H]3C[C@H]1CC[C@@]21C(=Nc2ccccc21)O3 [Compound 15a] | 0.9 | – | – | – |
| CC12CCC3CC1CCC21C(=Nc2ccc(Cl)cc21)O3 (stereo not shown) [Compound 15c] | 1.5 | – | – | – |
| C[C@]12CC[C@@H]3C[C@H]1CC[C@@]21C(=Nc2ccc(F)cc21)O3 [Compound 15d] | 1.3 | – | – | – |
| Cc1ccc2c(c1)[C@@]13CC[C@@H]4C[C@@H](CC[C@@]41C)OC3=N2 [Compound 15e] | 2.1 | 6.18 | 2.4 | – |
| COc1ccc2c(c1)[C@@]13CC[C@@H]4C[C@@H](CC[C@@]41C)OC3=N2 [Compound 15f] | 2.1 | – | – | – |
| C[C@]12CC[C@@H]3C[C@H]1CC[C@@]21C(=Nc2ccc(C(F)(F)F)cc21)O3 [Compound 15g] | 1 | – | – | – |
| CC12CCC3CC1CCC21C(=Nc2c(Br)cc(C(F)(F)F)cc21)O3 (stereo not shown) [Compound 15h] | 0.106 | – | – | – |
| C[C@]12CC[C@@H]3C[C@H]1CC[C@@]21C(=Nc2c(F)cc(Cl)cc21)O3 [Compound 15i] | 1 | – | – | – |
| CC12CCC3CC1CCC21C(=Nc2ccc(NCc4ccccc4)cc21)O3 (stereo not shown) [Compound 19b] | 3.7 | 3.48 | 7.3 | – |
| CCCCCNc1ccc2c(c1)[C@@]13CC[C@@H]4C[C@@H](CC[C@@]41C)OC3=N2 [Compound 19c] | 4.5 | 4.06 | 7.2 | – |
| CCCCN(C)c1ccc2c(c1)[C@@]13CC[C@@H]4C[C@@H](CC[C@@]41C)OC3=N2 [Compound 19d] | 3.9 | 4.53 | 5.2 | – |
| CC(C)(C)OC(=O)N1CCN(c2ccc3c(c2)C24CCC5CC(CCC52C)OC4=N3)CC1 (stereo not shown) [Compound 19e] | 6.6 | 2.86 | 8.9 | – |
| C[C@]12CC[C@@H]3C[C@H]1CC[C@@]21C(=Nc2ccc(N(Cc4ccccc4)c4ccc5c(c4)[C@@]46CC[C@@H]7C[C@@H](CC[C@@]74C)OC6=N5)cc21)O3 [Compound 20a] | – | – | – | 0.0479 |
| CCCCCN(c1ccc2c(c1)[C@@]13CC[C@@H]4C[C@@H](CC[C@@]41C)OC3=N2)c1ccc2c(c1)[C@@]13CC[C@@H]4C[C@@H](CC[C@@]41C)OC3=N2 [Compound 20b] | – | – | – | -0.0184 |
| C[C@]12CC[C@@H]3C[C@H]1CC[C@@]21C(=Nc2ccc(-c4ccccc4)cc21)O3 [Compound 21a] | 0.8 | – | – | – |
| COc1ccc(-c2ccc3c(c2)C24CCC5CC(CCC52C)OC4=N3)cc1 (stereo not shown) [Compound 21b] | 0.548 | – | 1.2 | – |
| CC12CCC3CC1CCC21C(=Nc2ccc(N4CCNCC4)cc21)O3 (stereo not shown) [Compound 22] | 0.0199 | – | – | – |
| C[C@]12CC[C@@H]3C[C@H]1CC[C@@]21C(=Nc2ccc(N4CCN(Cc5ccncc5)CC4)cc21)O3 [Compound 24] | 3 | 6.4 | 4.2 | – |
| CCN(CC)CCO[C@H]1CC[C@@]2(C)C(=CC[C@@H]3[C@@H]2CC[C@]2(C)C(=O)CC[C@@H]32)C1 [Compound U18666A, reference compound] | – | – | – | 0.6 |

Reference: publication PMC11758220, “Identification of a Privileged Scaffold for Inhibition of Sterol Transport Proteins through the Synthesis and Ring Distortion of Diverse, Pseudo-Natural Products” (ACS Central Science, 2025)
